Experimental data from patent publication US6696454B2, “Inhibitors of spermidine synthase for the treatment of osteoarthritis and cartilage rehabilitation” (Quark Biotech, Inc., priority 2000, dated 2004).

Tests used:
spermidine synthase [1] = conditions: cited from earlier work
spermidine synthase [2] = target: T1, spermidine synthase (Homo sapiens, UniProt P19623); conditions: variety of mammalian cells exposed to racemic AdoDATO; cited from earlier work
T1 construct: host or cells: a variety of mammalian cells (endogenous enzyme)
T1 sequence (P19623 1-302): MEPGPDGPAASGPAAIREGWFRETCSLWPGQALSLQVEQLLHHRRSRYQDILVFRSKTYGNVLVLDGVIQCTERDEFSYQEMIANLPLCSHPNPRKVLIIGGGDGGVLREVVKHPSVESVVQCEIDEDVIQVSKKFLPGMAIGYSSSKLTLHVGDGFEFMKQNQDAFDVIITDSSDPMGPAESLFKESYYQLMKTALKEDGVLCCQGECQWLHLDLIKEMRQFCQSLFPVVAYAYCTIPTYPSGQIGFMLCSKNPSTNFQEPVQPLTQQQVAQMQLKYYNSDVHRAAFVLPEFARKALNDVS

cell proliferation = conditions: cell culture; cited from earlier work
spermidine synthase [3] = conditions: neonatal rats, cited from earlier work
[4] = test system: mouse alveolar macrophages; conditions: cited from earlier work; for fusion of macrophages: 1α,25(OH)2D3-induced; for enhanced synthesis of proteins induced by 1α,25(OH)2D3: 9 of the 14 induced proteins
[5] = test system: proteoglycan subunits bound to type II collagen; conditions: Sepharose 4B-collagen column loaded with proteoglycan subunits; cited from earlier work
alkaline phosphatase = target: T2, alkaline phosphatase (Homo sapiens, UniProt P05186); conditions: cited from earlier work
T2 construct: alkaline phosphatase produced from cartilage
T2 sequence (P05186 18-501): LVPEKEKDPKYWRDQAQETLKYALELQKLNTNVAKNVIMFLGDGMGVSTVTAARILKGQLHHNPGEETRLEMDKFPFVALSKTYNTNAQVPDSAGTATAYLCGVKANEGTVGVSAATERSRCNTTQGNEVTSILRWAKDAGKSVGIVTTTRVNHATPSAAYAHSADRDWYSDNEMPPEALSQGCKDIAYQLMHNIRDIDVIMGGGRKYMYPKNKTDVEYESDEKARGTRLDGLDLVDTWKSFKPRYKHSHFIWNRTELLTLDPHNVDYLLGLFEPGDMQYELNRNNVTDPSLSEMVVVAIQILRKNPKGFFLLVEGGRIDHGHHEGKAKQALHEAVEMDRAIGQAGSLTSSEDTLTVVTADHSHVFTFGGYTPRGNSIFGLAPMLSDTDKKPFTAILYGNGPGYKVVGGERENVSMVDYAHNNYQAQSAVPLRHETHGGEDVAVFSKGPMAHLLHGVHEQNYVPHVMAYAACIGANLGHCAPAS

HMSC = experiment: Differentiation marker expression in HMSC treated with cytokines/growth factors; assay type: cell-based, human
Experimental: 1.1. HMSC—Normal adult articular cartilage progenitor cells were obtained from human cartilage. The cartilage was dissected and cultured in fresh DMEM medium supplemented with 10% FCS, L-glutamine and antibiotics. Two weeks after the cultivation of dissected cartilage, the remaining pieces were removed and the attached cells were used.
(§1) A series of in vitro experiments using HMSC was conducted. The cells were exposed to a panel of treatments which cause either chondrogenic (e.g., IGF-1) or osteogenic and angiogenic (e.g., IL1 and FGF-2) responses. Two rounds of in vitro experiments were performed. Initially, a calibration experiment was carried out in order to determine the time/dose kinetics of the cellular response to the stimuli. Based on this study, a large-scale experiment was performed from which RNA was prepared and used in the course of the gene expression profiling experiments.
In order to validate the differentiation response of the HMSC to the various stimuli, cells exposed to different treatments (Table 1) were tested for the expression of markers specific for osteoblastic and chondroblastic lineages by immunohistochemistry and staining procedures. To optimize the response of HMSC to differentiation treatment, it was studied on cells grown at varying density (sparse and confluent).

spermidine synthase [6] = experiment: Gene expression profiling of treated HMSC by cDNA microarray hybridization; assay type: cell-based, human; conditions: HMSC treated with FGF-2
Experimental: as §1
cDNA probes were synthesized from 1 μg of polyA RNA derived from every sample using reverse transcriptase (Superscript, Gibco-BRL) and 18-mer oligo-dT primer. Cy3-dCTP (Amersham) or Cy5-dCTP (Amersham) were incorporated during the RT reaction, to label the cDNA. Hybridization, subsequent scanning, and visualization were performed as previously described (Schena, M. et al. (1996) Proc Natl Acad Sci USA 93, 10614-10619). The quality control of hybridizations was performed according to applicant's methods.
Probe 2 in all hybridizations was an identical probe comprised of a pool of 0 time point RNA extractions (Table 4, Common control). This served as a common normalizing probe and allowed us to compare results from different hybridizations in formal statistical analysis. […]

[7] = oral administration for 10 days or 4 months
[8] = rats, prolonged exposure for 10 days

## C[C@H]1CC[C@H](N)CC1 [4MCHA, trans-4-methylcyclohexylamine]
Spermidine synthase [1]; [7]
  spermidine in rat tissue: specific and marked decrease
  spermine in rat tissue: compensatory increase
Spermidine synthase [1]; rats, prolonged exposure for 10 days, variety of tissues
  reduction in spermidine: 70-80%
Spermidine synthase [1]; [8]
  effect on growth: no obvious effect
  spermine: compensatory increase
  total polyamine content: remained constant

## NCCCCC[S+](CCN)CC1OC(n2cnc3c(N)ncnc32)C(O)C1O (centres unmarked) [AdoDATO, S-adenosyl-1,8-diamino-3-thiooctane]
Spermidine synthase [2]
  cellular spermidine content: drastic decrease
  putrescine content: concomitant elevation
Cell proliferation
  cell proliferation: significant decrease

## C1CCC(NC2CCCCC2)CC1 [DCHA]
Spermidine synthase [3]; continued DCHA treatment
  levels of all three polyamines on continued treatment: returned to normal within two weeks
Spermidine synthase [3]; daily administration
  brain spermidine: dose-dependent depletion
  putrescine and spermine: rise

## CC(C=NNC(=N)N)=NNC(=N)N [MGBG, methylglyoxal bis(guanylhydrazone), reference compound]
[4]
  fusion of macrophages: concomitant inhibition
  enhanced synthesis of proteins induced by 1α,25(OH)2D3: greatly diminished

## NCCCCN [putrescine, 1,4-diaminobutane]
[5]
  effect on displacing proteoglycan subunits from collagen column: without effect

## NCCCCNCCCN [spermidine]
[4]
  fusion of macrophages: restored
  enhanced synthesis of proteins induced by 1α,25(OH)2D3: restored
[5]
  effect on displacing proteoglycan subunits from collagen column: strong capacity
  proteoglycan subunits removed from the column: about 90%
Alkaline phosphatase
  activity of alkaline phosphatase produced from cartilage: increased

## NCCCNCCCCNCCCN [spermine]
[5]
  effect on displacing proteoglycan subunits from collagen column: without effect
Alkaline phosphatase
  activity of alkaline phosphatase produced from cartilage: increased

## FGF-2: fibroblast growth factor
HMSC; confluent HMSC, 6 days
  FGFR3 expression: increased
  VEGF expression: increased
  chondrocyte maturation and cartilage matrix production (Alcian Blue staining): decreased
  expression of osteocalcin: increased
Spermidine synthase [6]
  expression of spermidine synthase gene: up-regulation

## IGF-1: growth factor that is beneficial for normal cartilage function and rehabilitation
HMSC; confluent HMSC, 6 days
  FGFR3 expression: decreased
  chondrocyte maturation and cartilage matrix production (Alcian Blue staining): accelerates
  expression of collagen type II: increased

## IL-1β: the inflammatory cytokine, known to be overproduced in OA joints
HMSC; confluent HMSC, 6 days
  FGFR3 expression: increased
  VEGF expression: increased
  chondrocyte maturation and cartilage matrix production (Alcian Blue staining): decreased
  expression of osteocalcin: increased
HMSC; high doses
  cytotoxicity to HMSC: cytotoxic
